pIC50: −log10 of the molar value.
What was measured:
[1] = Intrinsic clearance in […]; assay type: ADME
[2] = biological target: Disintegrin and metalloproteinase domain-containing protein 17 (Homo sapiens, UniProt P78536); test: Inhibition of TACE (unknown origin)
[3] = biological target: T1, A disintegrin and metalloproteinase with thrombospondin motifs 4 (Homo sapiens, UniProt O75173); test: Inhibition of ADAMTS-4 (unknown origin) by FRET method
T1 sequence (O75173 whole entry): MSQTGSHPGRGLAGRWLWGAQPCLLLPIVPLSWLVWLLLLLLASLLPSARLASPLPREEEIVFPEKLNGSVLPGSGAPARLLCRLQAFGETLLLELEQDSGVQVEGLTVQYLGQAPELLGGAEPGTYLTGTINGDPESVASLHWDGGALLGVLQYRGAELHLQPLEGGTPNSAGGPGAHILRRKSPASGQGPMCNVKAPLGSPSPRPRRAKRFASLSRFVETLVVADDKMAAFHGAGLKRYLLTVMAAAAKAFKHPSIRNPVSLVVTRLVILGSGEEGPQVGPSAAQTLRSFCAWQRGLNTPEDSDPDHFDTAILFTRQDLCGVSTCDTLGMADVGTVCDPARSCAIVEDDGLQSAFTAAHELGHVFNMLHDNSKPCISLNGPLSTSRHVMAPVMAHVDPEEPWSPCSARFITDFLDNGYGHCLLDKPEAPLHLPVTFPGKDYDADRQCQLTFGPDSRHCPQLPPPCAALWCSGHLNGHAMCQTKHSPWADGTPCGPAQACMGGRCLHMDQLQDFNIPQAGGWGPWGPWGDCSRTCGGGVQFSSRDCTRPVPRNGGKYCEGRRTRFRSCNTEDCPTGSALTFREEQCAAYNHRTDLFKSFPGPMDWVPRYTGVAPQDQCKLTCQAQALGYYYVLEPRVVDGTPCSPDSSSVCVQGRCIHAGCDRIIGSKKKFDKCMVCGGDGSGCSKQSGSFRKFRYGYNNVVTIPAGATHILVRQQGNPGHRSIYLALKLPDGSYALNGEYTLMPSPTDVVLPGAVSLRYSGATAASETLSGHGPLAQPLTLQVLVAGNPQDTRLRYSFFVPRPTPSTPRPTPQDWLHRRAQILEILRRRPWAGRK

Chain of Disintegrin and metalloproteinase domain-containing protein 17 (P78536 whole entry, the tested form may be a part): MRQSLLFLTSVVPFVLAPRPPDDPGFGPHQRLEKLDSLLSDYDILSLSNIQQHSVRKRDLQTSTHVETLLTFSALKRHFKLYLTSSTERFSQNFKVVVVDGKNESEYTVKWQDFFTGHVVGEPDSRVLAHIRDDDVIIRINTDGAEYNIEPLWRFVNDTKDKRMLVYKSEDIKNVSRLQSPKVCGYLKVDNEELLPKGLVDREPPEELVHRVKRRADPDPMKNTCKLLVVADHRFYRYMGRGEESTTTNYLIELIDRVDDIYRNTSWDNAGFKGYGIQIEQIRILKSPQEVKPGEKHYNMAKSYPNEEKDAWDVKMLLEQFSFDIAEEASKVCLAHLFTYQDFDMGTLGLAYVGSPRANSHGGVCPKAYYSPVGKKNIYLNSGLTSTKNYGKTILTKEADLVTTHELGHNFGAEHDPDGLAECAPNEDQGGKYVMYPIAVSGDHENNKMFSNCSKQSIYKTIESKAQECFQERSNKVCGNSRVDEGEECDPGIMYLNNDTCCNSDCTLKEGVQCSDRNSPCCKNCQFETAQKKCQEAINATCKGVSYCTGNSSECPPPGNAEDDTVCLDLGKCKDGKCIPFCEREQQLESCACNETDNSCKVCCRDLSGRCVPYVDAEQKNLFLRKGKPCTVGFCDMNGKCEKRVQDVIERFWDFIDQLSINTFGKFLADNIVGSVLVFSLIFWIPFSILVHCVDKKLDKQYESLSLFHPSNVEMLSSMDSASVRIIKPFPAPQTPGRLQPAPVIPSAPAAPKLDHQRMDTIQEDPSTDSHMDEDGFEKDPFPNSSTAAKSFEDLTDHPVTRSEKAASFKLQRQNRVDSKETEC

- CLint scaled [1]: 2.7 mL/min/kg
- pIC50 [2]: < 4.52
- pIC50 [3]: 4.64
SMILES: O=C(O)CCc1sc(/C=C2\NC(=O)CS2)nc1-c1ccccn1

— ChEMBL document CHEMBL2346648, “A series of thiazole derivatives bearing thiazolidin-4-one as non-competitive ADAMTS-5 (aggrecanase-2) inhibitors” (Bioorg Med Chem Lett, 2013)
